One assay has as its target T1, recombinant human ETB R (Homo sapiens, UniProt P24530).
T1 construct: expressed in transfected cells; host or cells: CHO-K1 cells
T1 sequence (P24530 27-442): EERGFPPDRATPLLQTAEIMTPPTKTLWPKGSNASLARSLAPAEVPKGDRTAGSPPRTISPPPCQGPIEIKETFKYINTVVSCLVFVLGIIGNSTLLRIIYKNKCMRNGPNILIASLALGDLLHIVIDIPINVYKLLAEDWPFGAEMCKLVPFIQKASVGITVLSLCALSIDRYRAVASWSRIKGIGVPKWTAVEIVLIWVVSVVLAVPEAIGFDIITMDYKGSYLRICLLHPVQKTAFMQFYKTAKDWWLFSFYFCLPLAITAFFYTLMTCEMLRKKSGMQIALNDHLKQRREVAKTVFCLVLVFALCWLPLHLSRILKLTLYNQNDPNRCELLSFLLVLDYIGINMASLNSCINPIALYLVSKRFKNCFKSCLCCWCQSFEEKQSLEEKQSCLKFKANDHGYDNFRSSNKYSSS
The assay is classed as binding. The settings on record: [125I]-ET-1 40 pM, 2 hours at 37° C.; read-out: HERBAB IC50. The procedure: (§1) The compounds of Formula I are valuable antagonists of endothelin.
(§2) The following cultured cells were used in binding experiments: rabbit renal artery vascular smooth muscle cells (ERBA-A), Ltk-cells expressing recombinant human ETA R (HERBA-A), and CHO-K1 cells expressing recombinant human ETB R (HERBA-B).
(§3) Membranes were prepared from cultured cells by lysing cells in cold lysis buffer (5 mM HEPES, 2 mM EDTA, pH 7.4) and homogenizing with a Dounce "A" homogenizer. The homogenate was centrifuged at 30,000× g for 20 minutes at 4° C. Membrane pellets were suspended in cold buffer containing 20 mM Tris, 2 mM EDTA, 200 μM Pefabloc, 10 μM phosphoramidon, 10 μM leupeptin, 1 μM pepstatin at pH 7.4 and frozen at -80° C. until use. Membranes were thawed and homogenized with a Brinkmann Polytron then diluted in tissue buffer containing 20 mM Tris, 2 mM EDTA, 200 μM Pefabloc, and 100 μM bacitracin (pH 7.4). Radioligand and competing ligands were prepared in binding buffer containing 20 mM Tris, 2 mM EDTA, and 0.1% BSA.
(§4) Competing binding assays were initiated by combining membranes, [125I]-ET-1 (40 pM) and the competing ligand in a final volume of 250 μL and incubating for 2 hours at 37° C. The assay was terminated by filtration over Whatman GF/B filters which were presoaked with 50 mM Tris, pH 7.4 containing 0.2% BSA and 100 μM bacitracin. Nonspecific binding was defined as binding in the presence of 100 nM ET-1.

A further assay has as its target T2, recombinant human ETA R (Homo sapiens, UniProt P25101).
T2 construct: expressed in transfected cells; host or cells: Ltk- cells
T2 sequence (P25101 21-427): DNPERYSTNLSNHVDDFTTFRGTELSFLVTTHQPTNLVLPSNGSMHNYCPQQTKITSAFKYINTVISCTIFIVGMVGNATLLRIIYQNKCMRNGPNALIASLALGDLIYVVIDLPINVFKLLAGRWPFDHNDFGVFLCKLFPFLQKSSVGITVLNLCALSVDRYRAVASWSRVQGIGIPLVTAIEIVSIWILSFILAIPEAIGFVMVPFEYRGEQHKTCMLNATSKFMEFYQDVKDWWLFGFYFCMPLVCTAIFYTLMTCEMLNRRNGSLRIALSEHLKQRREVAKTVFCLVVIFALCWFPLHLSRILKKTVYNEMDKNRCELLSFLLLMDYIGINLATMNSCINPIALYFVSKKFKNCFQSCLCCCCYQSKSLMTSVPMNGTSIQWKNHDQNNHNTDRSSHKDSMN
The assay is classed as binding. Particulars: [125I]-ET-1 40 pM, 2 hours at 37° C.; read-out: HERBAA IC50. The procedure: as §1, §2, §3, §4

The next assay has as its target T3, ETA (Oryctolagus cuniculus, UniProt A5A8K3).
T3 construct: cultured rabbit renal artery vascular smooth muscle cells; endogenous in cells; host or cells: cultured rabbit renal artery vascular smooth muscle cells
T3 sequence (A5A8K3 21-427): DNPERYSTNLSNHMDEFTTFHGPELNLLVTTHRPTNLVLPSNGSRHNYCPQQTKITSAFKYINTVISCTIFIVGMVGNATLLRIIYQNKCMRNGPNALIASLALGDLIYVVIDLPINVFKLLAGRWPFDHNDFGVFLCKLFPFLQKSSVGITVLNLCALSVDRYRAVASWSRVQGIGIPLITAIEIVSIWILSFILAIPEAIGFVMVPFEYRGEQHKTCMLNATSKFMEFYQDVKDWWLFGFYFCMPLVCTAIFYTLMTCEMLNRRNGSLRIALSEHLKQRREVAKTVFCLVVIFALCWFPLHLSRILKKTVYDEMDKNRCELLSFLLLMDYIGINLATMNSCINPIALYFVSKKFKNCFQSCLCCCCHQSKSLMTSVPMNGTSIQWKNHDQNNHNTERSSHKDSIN
In words: AAR: inhibition of ET-1 stimulated arachidonic acid release in cultured rabbit renal artery vascular smooth muscle cells. The assay is classed as cell-based. The settings on record: 0.3 nM ET-1, 30 minutes.
Excerpt: as §1

The structures appear in SMILES notation. Where only a bound is given, the exact number is not on record here.

One may read the IC50 as the concentration at which inhibition is half-maximal. Regarding `COc1cccc(SC2=C(C(=O)O)N(Cc3ccc4c(c3)OCO4)S(=O)(=O)c3ccccc32)c1` [Example 49, 2-Benzo[1,3]dioxol-5-ylmethyl-4-(3-methoxyphenylsulfanyl)-1,1-dioxo-1,2-dihydro-1λ^6-benzo[e][1,2]thiazine-3-carboxylic acid], the IC50 on recombinant human ETB R worked out at 8.7 µM; at recombinant human ETA R, 0.51 µM.

`COc1cc(CN2C(C(=O)O)=C(c3ccc4c(c3)OCO4)c3ccccc3S2(=O)=O)cc(OC)c1OC` [Example 29, 4-Benzo[1,3]dioxol-5-yl-1,1-dioxo-2-(3,4,5-trimethoxybenzyl)-1,2-dihydro-1λ^6-benzo[e][1,2]thiazine-3-carboxylic acid]: the IC50 at recombinant human ETB R came out at 4.7 µM; at recombinant human ETA R, 0.17 µM.

In the case of `O=C(O)C1=C(c2ccc3c(c2)OCO3)c2ccccc2S(=O)(=O)N1Cc1cc2c(cc1Cl)OCO2` [Example 31, 4-Benzo[1,3]dioxol-5-yl-2-(6-chloro-benzo[1,3]dioxol-5-ylmethyl)-1,1-dioxo-1,2-dihydro-1λ^6-benzo[e][1,2]thiazine-3-carboxylic acid], the IC50 on ETA stood at 1.3 µM; on recombinant human ETB R, 0.38 µM; at recombinant human ETA R, 0.055 µM.

`O=C(O)C1=C(Sc2ccc3c(c2)OCO3)c2ccccc2S(=O)(=O)N1Cc1cc2c(cc1Cl)OCO2` [Example 46, 4-(Benzo[1,3]dioxol-5-ylsulfanyl)-2-(6-chloro-benzo[1,3]dioxol-5-ylmethyl)-1,1-dioxo-1,2-dihydro-1λ^6-benzo[e][1,2]thiazine-3-carboxylic acid]: the IC50 turned out to be 22 µM at recombinant human ETB R and 0.51 µM on recombinant human ETA R.

Consider `CN1C(C(=O)O)=C(Sc2ccc3c(c2)OCO3)c2ccccc2S1(=O)=O` [Example 41, 4-(benzo[1,3]dioxol-5-ylsulfanyl)-2-methyl-1,1-dioxo-1,2-dihydro-1λ^6-benzo[e][1,2]thiazine-3-carboxylic acid], for which the IC50 turned out to be 25 µM on recombinant human ETB R and 0.1 µM at recombinant human ETA R.

Regarding `COc1ccc(C2=C(C(=O)O)N(Cc3ccc4c(c3)OCO4)S(=O)(=O)c3ccccc32)cc1OC` [Example 33, 2-Benzo[1,3]dioxol-5-ylmethyl-4-(3,4-dimethoxy-phenyl)-1,1-dioxo-1,2-dihydro-1λ^6-benzo[e][1,2]thiazine-3-carboxylic acid], the IC50 was 3.6 µM on recombinant human ETB R and 0.72 µM at recombinant human ETA R.

`COc1ccc(SC2=C(C(=O)O)N(Cc3ccc4c(c3)OCO4)S(=O)(=O)c3ccccc32)cc1OC` [Example 48, 2-Benzo[1,3]dioxol-5-ylmethyl-4-(3,4-dimethoxyphenylsulfanyl)-1,1-dioxo-1,2-dihydro-1λ^6-benzo[e][1,2]thiazine-3-carboxylic acid]: the IC50 turned out to be 8.2 µM on recombinant human ETB R and 0.23 µM on recombinant human ETA R.

For `COc1ccc(CN2C(C(=O)O)=C(Sc3ccc4c(c3)OCO4)c3ccccc3S2(=O)=O)cc1` [Example 44, 4-(benzo[1,3]dioxol-5-ylsulfanyl)-2-(4-methoxy-benzyl)-1,1-dioxo-1,2-dihydro-1λ^6-benzo[e][1,2]thiazine-3-carboxylic acid], the IC50 at recombinant human ETB R was determined as 2.3 µM; on recombinant human ETA R it was 0.4 µM.

In the case of `COc1cc2c(cc1OC)S(=O)(=O)N(Cc1ccc3c(c1)OCO3)C(C(=O)O)=C2Sc1ccc2c(c1)OCO2` [Example 50, 2-Benzo[1,3]dioxol-5-ylmethyl-4-(benzo[1,3]dioxol-5-ylsulfanyl)-6,7-dimethoxy-1,1-dioxo-1,1-dihydro-1λ^6-benzo[e][1,2]thiazine-3-carboxylic acid], the figures for the IC50 at recombinant human ETB R and at recombinant human ETA R were 3.5 µM and 0.3 µM, respectively.

As for `COc1cc(CN2C(C(=O)O)=C(c3ccc4c(c3)OCO4)c3ccccc3S2(=O)=O)cc2c1OCO2` [Example 32, 4-Benzo[1,3]dioxol-5-yl-2-(7-methoxy-benzo[1,3]dioxol-5-ylmethyl)-1,1-dioxo-1,2-dihydro-1λ^6-benzo[e][1,2]thiazine-3-carboxylic acid], the IC50 worked out at 4.7 µM at recombinant human ETB R and 0.3 µM at recombinant human ETA R.

As to `O=C(O)C1=C(Sc2ccc3c(c2)OCO3)c2ccccc2S(=O)(=O)N1Cc1ccccc1` [Example 43, 4-(benzo[1,3]dioxol-5-ylsulfanyl)-2-benzyl-1,1-dioxo-1,2-dihydro-1λ^6-benzo[e][1,2]thiazine-3-carboxylic acid], the IC50 at recombinant human ETB R turned out to be 12 µM; at recombinant human ETA R, 0.12 µM.

On to `CN1C(C(=O)O)=C(c2ccc3c(c2)OCO3)c2ccccc2S1(=O)=O` [Example 25, 4-Benzo[1,3]dioxol-5-yl-2-methyl-1,1-dioxo-1,2-dihydro-1λ^6-benzo[e][1,2]thiazine-3-carboxylic acid], for which the IC50 on recombinant human ETB R is greater than 25 µM; on recombinant human ETA R it was 1.7 µM.

Consider `O=C(O)C1=C(c2ccc3c(c2)OCO3)c2ccccc2S(=O)(=O)N1Cc1ccccc1` [Example 27, 4-Benzo[1,3]dioxol-5-yl-2-benzyl-1,1-dioxo-1,2-dihydro-1λ^6-benzo[e][1,2]thiazine-3-carboxylic acid], for which the IC50 on recombinant human ETB R worked out at 4.6 µM; at recombinant human ETA R, 0.16 µM.

`COc1cc(CN2C(C(=O)O)=C(Sc3ccc4c(c3)OCO4)c3ccccc3S2(=O)=O)cc(OC)c1OC` [Example 45, 4-(benzo[1,3]dioxol-5-ylsulfanyl)-2-(3,4,5-trimethoxy-benzyl)-1,1-dioxo-1,2-dihydro-1λ^6-benzo[e][1,2]thiazine-3-carboxylic acid]: the 50% inhibitory concentration (IC50) on recombinant human ETB R is 12 µM; at recombinant human ETA R it was 0.2 µM.

As for `O=C(O)C1=C(c2ccc3c(c2)OCO3)c2ccccc2S(=O)(=O)N1Cc1ccc2c(c1)OCO2` [Example 26, 4-Benzo[1,3]dioxol-5-yl-2-benzo[1,3]dioxol-5-ylmethyl-1,1-dioxo-1,2-dihydro-1λ^6-benzo[e][1,2]thiazine-3-carboxylic acid], the IC50 at recombinant human ETB R amounted to 3.1 µM; on recombinant human ETA R, 0.3 µM.

As to `COc1ccc(CN2C(C(=O)O)=C(c3ccc4c(c3)OCO4)c3ccccc3S2(=O)=O)c(OCC(=O)O)c1` [Example 30, 4-Benzo[1,3]dioxol-5-yl-2-(2-carboxymethoxy-4-methoxybenzyl)-1,1-dioxo-1,2-dihydro-1λ^6-benzo[e][1,2]thiazine-3-carboxylic acid], the IC50 amounted to 4.9 µM on recombinant human ETB R and 1.8 µM on recombinant human ETA R.

For the compound `COc1cc(C2=C(C(=O)O)N(Cc3ccc4c(c3)OCO4)S(=O)(=O)c3ccccc32)cc(OC)c1OC` [Example 24, 2-Benzo[1,3]dioxol-5-ylmethyl-1,1-dioxo-4-(3,4,5-trimethoxyphenyl)-1,2-dihydro-1λ^6-benzo[e][1,2]thiazine-3-carboxylic acid], the IC50 at recombinant human ETB R is greater than 25 µM; on recombinant human ETA R, 11 µM.

As for `O=C(NS(=O)(=O)c1ccccc1)C1=C(c2ccc3c(c2)OCO3)c2ccccc2S(=O)(=O)N1Cc1ccc2c(c1)OCO2` [Example 35, N-(4-Benzo[1,3]dioxo-5-yl-2-benzo[1,3]dioxol-5-ylmethyl-1,1-dioxo-1,2-dihydro-1λ^6-benzo[e][1,2]thiazine-3-carbonyl)-benzenesulfonamide], the IC50 is greater than 25 µM at recombinant human ETB R and 3 µM at recombinant human ETA R.
